Positions count from the first letter of the chain named.
Assays:
AlaRS^N71Y = target: T1, AlaRS^N71Y (Homo sapiens, UniProt P49588, N71Y); experiment: Proteolytic digestion assay (trypsin, SDS-PAGE); conditions: three hours
T1 construct: made in house; host or cells: E. coli BL21 (DE3), pET-21a
T1 sequence (P49588 1-968 N71Y): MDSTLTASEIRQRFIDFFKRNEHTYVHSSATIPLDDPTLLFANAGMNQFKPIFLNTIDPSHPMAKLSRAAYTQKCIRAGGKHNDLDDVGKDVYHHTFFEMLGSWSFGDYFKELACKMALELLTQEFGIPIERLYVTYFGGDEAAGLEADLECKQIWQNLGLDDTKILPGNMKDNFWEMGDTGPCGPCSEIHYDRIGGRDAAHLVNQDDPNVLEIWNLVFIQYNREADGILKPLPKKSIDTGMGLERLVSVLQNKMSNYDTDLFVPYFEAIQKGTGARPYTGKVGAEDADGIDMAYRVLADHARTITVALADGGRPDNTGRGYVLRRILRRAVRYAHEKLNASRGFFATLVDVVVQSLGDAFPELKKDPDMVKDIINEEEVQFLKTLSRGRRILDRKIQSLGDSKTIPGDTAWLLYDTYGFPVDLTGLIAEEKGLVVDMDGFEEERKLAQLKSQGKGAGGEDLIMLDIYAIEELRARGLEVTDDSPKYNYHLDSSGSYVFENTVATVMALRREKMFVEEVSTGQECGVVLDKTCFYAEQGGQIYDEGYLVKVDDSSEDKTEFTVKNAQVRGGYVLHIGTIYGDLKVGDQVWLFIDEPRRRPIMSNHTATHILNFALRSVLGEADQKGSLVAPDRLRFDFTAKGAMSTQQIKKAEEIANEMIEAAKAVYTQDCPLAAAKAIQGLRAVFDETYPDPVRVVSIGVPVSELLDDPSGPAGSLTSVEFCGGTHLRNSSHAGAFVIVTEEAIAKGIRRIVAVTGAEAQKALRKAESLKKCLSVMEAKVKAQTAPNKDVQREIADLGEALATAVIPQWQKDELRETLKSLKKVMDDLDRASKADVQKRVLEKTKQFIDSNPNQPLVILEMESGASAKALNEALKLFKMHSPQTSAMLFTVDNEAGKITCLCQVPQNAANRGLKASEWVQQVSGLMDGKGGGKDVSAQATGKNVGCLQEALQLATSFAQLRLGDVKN
Source text: (§1) Furthermore, we examined the interaction of Tanshinone I with additional AlaRS CMT mutants capable of binding to Nrp1 and causing conformational changes by BLI and proteolysis assays on additional related mutants.
(§2) Figure 5 BLI and proteolytic digestion assay of AlaRS mutants with Tanshinone I. Binding sensorgrams for the interaction of Tanshinone I with immobilized AlaRS^R329H (A), AlaRS^G102R (C), AlaRS^R326W (E), and AlaRS^E337K (G). Each sensorgram contains five curves generated from five different concentrations. The KD values are presented as the mean ± SD and experiments were performed in triplicate. The AlaRS^N71Y (B), AlaRS^G102R (D), AlaRS^R326W (F), and AlaRS^E337K (H) proteins (in the presence and absence of Tanshinone I) were incubated with trypsin at different concentrations for three hours before the reactions were quenched, and the products were separated by SDS-PAGE.

AlaRS^E337K = target: T2, AlaRS^E337K (Homo sapiens, UniProt P49588, E337K); experiment: Proteolytic digestion assay (trypsin, SDS-PAGE); conditions: three hours
T2 construct: made in house; host or cells: E. coli BL21 (DE3), pET-21a
T2 sequence (P49588 1-968 E337K): T1 sequence (P49588 1-968 N71Y) with Y71N, E337K
Source text: as §1, §2

Structure (SMILES): Cc1coc2c1C(=O)C(=O)c1c-2ccc2c(C)cccc12 [Tanshinone I]
- Effect on proteolytic fragments / conformation (AlaRS^N71Y): significant conformational change
- Effect on proteolytic fragments / conformation (AlaRS^E337K): altered band patterns after Tanshinone I treatment

From publication PMC11509018, “Evaluation of the Role of Tanshinone I in an In Vitro System of Charcot-Marie-Tooth Disease Type 2N” (International Journal of Molecular Sciences, 2024)
